Data reported in US7723468B2, “Antimicrobial peptide, compositions, and uses therefor” (De Sao Paulo Universida de, priority 2000, dated 2010).
Bridges are numbered along the chain shown (N, C = ends).

What was measured:
Format in all cases: cell-based
[1] = test system: Gram-positive and Gram-negative bacteria and yeast; test: Antimicrobial activity of head-to-tail cyclic gomesin, same growth inhibition assay (FIG. 3); conditions: tested Gram-positive and Gram-negative bacteria and yeast
Experimental: (§1) The evaluation of activity against bacteria and fungi was done as described in J. Biol. Chem., 271, 29537-29544 (1996).
On FIG. 1, n.d. means “non-detected” for the tested concentration range of up to 100 μM for gomesin, while n.m. means not measured. The minimal inhibitory concentrations (MICs) of synthetic peptides are expressed as the [A]-[B] interval of concentrations, where [A] is the highest concentration tested at which the microorganisms are growing and [B] is the lowest concentration that causes 100% growth inhibition.
The antimicrobial activity of the head-to-tail cyclic gomesin peptide (SEQ ID No 3) was evaluated using the same assay described above.

[2] = test system: Trypanosoma cruzi; test: Anti-parasitic activity, MTT cell viability test (FIG. 4); conditions: incubation one hour at 22° C., 0.1 to 100 μM
Experimental: (§2) As an example of anti-parasitic activity, the cell viability of Leishmania (leishmania) amazonensis (MRPO/BR/72/M 1841-LV-79) and Trypanosoma cruzi were evaluated, by making use of the MTT [3-(4,5-dimethyltiazolyl-2)-2,5-diphenyl tetrazolio bromide] test as described in J. Immunol. Methods 65, 55-63 (1983) and adapted for Leishmania spp, according to J. Immunol. Methods 127, 11-18 (1990).
(§3) Quantities from 0.1 to 100 μM were tested against Leishmania (leishmania) amazonensis and Trypanosoma cruzi. […] The death of parasites (%) was measured by making use of the MTT assay as described in J. Immunol. Methods 65, 55-63 (1983) and adapted for Leishmania spp, according to J. Immunol. Methods 127, 11-18 (1990).

[3] = test system: Leishmania (leishmania) amazonensis (MRPO/BR/72/M 1841-LV-79); test: as above; conditions: incubation one hour at 22° C., 0.1 to 100 μM
Experimental: as §2, §3

[4] = test system: bacteria, fungi and yeast; test: Liquid growth inhibition assay, MIC activity spectrum (FIG. 1)
Experimental: The active fraction against the tested bacterium Micrococcus luteus of hemocytes (AGH2) is additionally purified by filtration chromatography. Elution is made under isocratic conditions with 30% acetonitrile in acidic water at a flow rate of 0.4 ml/min. HPLC (high performance liquid chromatography) purification was made at room temperature. The effluent column was monitored for its absorbance at 225 nm. Fractions corresponding to absorbance peaks were collected, concentrated under vacuum and reconstituted in MilliQ water. Anti-bacterial activity of the collected fractions was monitored by a liquid growth inhibition assay according to J. Biol. Chem., 268, 14893-14897 (1993), using Micrococcus luteus as the test microorganism.
as §1
On FIG. 1, n.d. means “non-detected” for the tested concentration range of up to 100 μM for gomesin, while n.m. means not measured. The minimal inhibitory concentrations (MICs) of synthetic peptides are expressed as the [A]-[B] interval of concentrations, where [A] is the highest concentration tested at which the microorganisms are growing and [B] is the lowest concentration that causes 100% growth inhibition. […]

Substance | antimicrobial activity compared with native gomesin [1] | viability of parasites (death of parasites, %) [2] | viability of parasites (death of parasites, %) [3] | MIC (minimum inhibitory concentration) ([4]; for half of the 24 susceptible strains) | strains susceptible to gomesin ([4]; out of the 27 strains tested, concentration range up to 100 μM)
QCRRLCYKQRCVTYCRGR (cyclo(QCRRLCYKQRCVTYCRGR); disulfide 6-11, 2-15; SMILES CC(C)C[C@@H]1NC(=O)[C@H](CCCNC(=N)N)NC(=O)[C@H](CCCNC(=N)N)NC(=O)[C@@H]2CSSC[C@H](NC(=O)[C@H](Cc3ccc(O)cc3)NC(=O)[C@H]([C@@H](C)O)NC(=O)[C@H](C(C)C)NC(=O)[C@@H]3CSSC[C@H](NC1=O)C(=O)N[C@@H](Cc1ccc(O)cc1)C(=O)N[C@@H](CCCCN)C(=O)N[C@@H](CCC(N)=O)C(=O)N[C@@H](CCCNC(=N)N)C(=O)N3)C(=O)N[C@@H](CCCNC(=N)N)C(=O)NCC(=O)N[C@@H](CCCNC(=N)N)C(=O)N[C@@H](CCC(N)=O)C(=O)N2) [head-to-tail cyclic gomesin, gomesin with closed ends] | identical to the activity of native gomesin |  |  |  | 
ZCRRLCYKQRCVTYCRGRa [gomesin] |  | dependent on the concentration of gomesin | dependent on the concentration of gomesin | ≤ 1.6 µM | 24 strains
